From patent US20100168053A1, “ORAL DELIVERY SYSTEM FOR METHYLCOBALAMIN TO TREAT DISORDERS” (REVITAPOP, priority 2008, published 2010)

Test: Onset and duration of effect of methylcobalamin administration (subject reports, QEEG)
Assay type: in vivo, human
Details: varies between persons
Method: In a person responsive to methylcobalamin, the effects of methylcobalmin administered nasally may begin to occur within minutes of administration. […] In various experiments, subjects reported feeling better in minutes and sometimes seconds. Thus, improvements can occur within the first hour of administration.
Although the effects of a typical administration can last about 24 hours, every person is different. Thus, some people can become depleted of available methylcobalamin in hours or less, while others can feel the benefits for days. The dosage and frequency of methylcobalamin administration can decrease over time, particularly with changing lifestyle or eating habits. For example, reducing intake of milk and wheat products, complex carbohydrates and starches, and improvements to intestinal flora may reduce the need for methylcobalamin.

Compound: C/C1=C2/[N-][C@H]([C@H](CC(N)=O)[C@@]2(C)CCC(=O)NC[C@@H](C)OP(=O)([O-])O[C@H]2[C@@H](O)[C@@H](n3cnc4cc(C)c(C)cc43)O[C@@H]2CO)[C@]2(C)N=C(/C(C)=C3N=C(/C=C4N=C1[C@@H](CCC(N)=O)C\4(C)C)[C@@H](CCC(N)=O)[C@]\3(C)CC(N)=O)[C@@H](CCC(N)=O)[C@]2(C)CC(N)=O.[CH3-].[Co+3] [methylcobalamin]
- duration of effects of a typical administration: about 24 hours
